Test system: monocotyledonous and dicotyledonous test plants
Assay: Post-emergence herbicidal action
Type: in vivo
Set-up: key: 10=total damage; 0=no action; Ratings of from 10 to 7 (especially from 10 to 8) indicate good to very good herbicidal action
Conditions: about 18 days, rating 0-10
Procedure: Post-Emergence Herbicidal Action
In a greenhouse, monocotyledonous and dicotyledonous test plants are grown in standard soil in plastic pots and at the 4- to 6-leaf stage are sprayed with an aqueous suspension of the test compounds of formula I prepared from a 25% wettable powder (Example F3, b) according to WO 97/34485) or with an emulsion of the test compounds of formula I prepared from a 25% emulsifiable concentrate (Example F1, c) according to WO 97/34485), in a concentration corresponding to 125 g or 250 g of active ingredient/ha (500 litres of water/ha). The test plants are then grown on in a greenhouse under optimum conditions. After a test duration of about 18 days, the test is evaluated in accordance with a scale of nine ratings (10=total damage, 0=no action). Ratings of from 10 to 7 (especially from 10 to 8) indicate good to very good herbicidal action.

Row | Compound | Post-emergence action, Amaranthus (250 g a.i./ha) | Post-emergence action, Chenopodium (250 g a.i./ha) | Post-emergence action, Echinochloa (250 g a.i./ha) | Post-emergence action, Euphorbia (250 g a.i./ha) | Post-emergence action, Ipomea (250 g a.i./ha) | Post-emergence action, Sinapis (250 g a.i./ha) | Post-emergence action, Stellaria (250 g a.i./ha) | Post-emergence action, Xanthium (250 g a.i./ha) | Post-emergence action, Amaranthus (125 g a.i./ha) | Post-emergence action, Chenopodium (125 g a.i./ha) | Post-emergence action, Echinochloa (125 g a.i./ha) | Post-emergence action, Euphorbia (125 g a.i./ha) | Post-emergence action, Ipomea (125 g a.i./ha) | Post-emergence action, Sinapis (125 g a.i./ha) | Post-emergence action, Stellaria (125 g a.i./ha) | Post-emergence action, Xanthium (125 g a.i./ha)
1 | COc1nn(Cc2nc(C(F)(F)F)ccc2C(=O)C2=C(O)CCCC2=O)c(=O)n1C1CC1 [Compound A1.031] | 9 | 10 | 7 | 8 | 9 | 8 | 9 | 9 |  |  |  |  |  |  |  | 
2 | CCN1C(=O)N(Cc2nc(C(F)(F)F)ccc2C(=O)C2=C(O)C(C)(C)C(=O)C(C)(C)C2=O)C(=O)C1C (stereo not shown) [Compound A8.174] | 8 | 9 | 0 | 7 | 8 | 7 | 7 | 7 |  |  |  |  |  |  |  | 
3 | COc1nn(Cc2nc(C(F)(F)F)ccc2C(=O)c2cnn(C)c2O)c(=O)n1C [Compound B1.004] | 8 | 9 | 8 | 9 | 8 | 10 | 8 | 9 |  |  |  |  |  |  |  | 
4 | Cn1c(C(F)(F)F)nn(Cc2nc(C(F)(F)Cl)ccc2C(=O)C2=C(O)CCCC2=O)c1=O [Compound A1.001, 2-[6-(Chloro-difluoro-methyl)-3-(2-hydroxy-6-oxo-cyclohex-1-ene-carbonyl)-pyridin-2-ylmethyl]-4-methyl-5-trifluoromethyl-2.4-dihydro-[1.2.4]triazol-3-one] |  |  |  |  |  |  |  |  | 8 | 9 | 4 | 4 | 8 | 8 | 8 | 8
5 | COc1nn(Cc2nc(C(F)(F)F)ccc2C(=O)c2cnn(C)c2O)c(=O)n1C1CC1 [Compound B1.039] | 6 | 8 | 9 | 9 | 8 | 9 | 9 | 8 |  |  |  |  |  |  |  | 
6 | CN1CCN(Cc2nc(C(F)(F)F)ccc2C(=O)C2=C(O)CCCC2=O)C1=S [Compound A1.202] | 9 | 8 | 8 | 9 | 9 | 8 | 7 | 9 |  |  |  |  |  |  |  | 
7 | CCOc1nn(Cc2nc(C(F)(F)F)ccc2C(=O)C2=C(O)CCCC2=O)c(=O)n1C [Compound A1.043] | 9 | 9 | 7 | 7 | 9 | 6 | 9 | 9 |  |  |  |  |  |  |  | 
8 | Cc1nn(CCOCc2nc(C(F)(F)F)ccc2C(=O)C2=C(O)C3CCC(C3)C2=O)c(=O)s1 (stereo not shown) [Compound A6.082] | 8 | 9 | 7 | 7 | 8 | 5 | 9 | 7 |  |  |  |  |  |  |  | 
9 | Cc1nn(Cc2nc(C(F)(F)F)ccc2C(=O)C2=C(O)C(C)(C)CC(C)(C)C2=O)c(=O)s1 [Compound A7.009] | 4 | 9 | 7 | 7 | 7 | 8 | 7 | 7 |  |  |  |  |  |  |  | 
10 | CCOc1nn(Cc2nc(C(F)(F)F)ccc2C(=O)c2cnn(C)c2O)c(=O)n1C1CC1 [Compound B1.056] | 9 | 8 | 9 | 9 | 10 | 8 | 7 | 0 |  |  |  |  |  |  |  | 
11 | Cn1ncc(C(=O)c2ccc(C(F)(F)F)nc2Cn2c(=O)oc3cc(Cl)ccc32)c1O [Compound B1.194] | 9 | 9 | 9 | 9 | 7 | 7 | 8 | 9 |  |  |  |  |  |  |  | 
12 | CCOc1nn(Cc2nc(C(F)(F)F)ccc2C(=O)C2=C(O)CCCC2=O)c(=O)n1C1CC1 [Compound A1.049] | 9 | 8 | 8 | 9 | 9 | 8 | 8 | 9 |  |  |  |  |  |  |  | 
13 | Cc1nn(Cc2nc(C(F)(F)F)ccc2C(=O)C2=C(O)C3CCC(C3)C2=O)c(=O)o1 (stereo not shown) [Compound A6.097] | 7 | 9 | 7 | 7 | 7 | 8 | 9 | 7 |  |  |  |  |  |  |  | 
14 | COc1nn(Cc2nc(C(F)(F)F)ccc2C(=O)C2=C(O)C(C)(C)C(=O)C(C)(C)C2=O)c(=O)s1 [Compound A8.095] | 9 | 5 | 9 | 0 | 9 | 8 | 7 | 8 |  |  |  |  |  |  |  | 
15 | O=C1CCCC(O)=C1C(=O)c1ccc(C(F)(F)F)nc1Cn1sc(Cl)cc1=O [Compound A1.115] | 9 | 9 | 7 | 8 | 7 | 3 | 9 | 9 |  |  |  |  |  |  |  | 
16 | CCOc1nn(Cc2nc(C(F)(F)F)ccc2C(=O)C2=C(O)CCCC2=O)c(=O)n1C [Compound A1.037] | 9 | 9 | 4 | 8 | 9 | 8 | 8 | 9 |  |  |  |  |  |  |  | 
17 | CSC(=O)n1c(C)cc(=O)n1Cc1nc(C(F)(F)F)ccc1C(=O)c1cnn(C)c1O [Compound B1.062] | 9 | 9 | 4 | 9 | 7 | 8 | 8 | 6 |  |  |  |  |  |  |  | 
18 | CCN1C(=O)N(Cc2nc(C(F)(F)F)ccc2C(=O)C2=C(O)CCCC2=O)C(=O)C1C (racemic) [Compound A1.181] | 9 | 8 | 4 | 8 | 8 | 5 | 7 | 8 |  |  |  |  |  |  |  | 
19 | CC(C)c1cn(-c2ccccc2)c(=O)n1Cc1nc(C(F)(F)F)ccc1C(=O)c1cnn(C)c1O [Compound B1.158] | 7 | 8 | 4 | 7 | 8 | 7 | 7 | 5 |  |  |  |  |  |  |  | 
20 | CCOc1nn(Cc2nc(C(F)(F)F)ccc2C(=O)c2cnn(C)c2O)c(=O)n1CC [Compound B1.050] | 9 | 9 | 4 | 9 | 7 | 9 | 7 | 8 |  |  |  |  |  |  |  | 

— patent US20050256003A1, “Novel herbicides” (priority 2002, published 2005)
